Reference: ChEMBL document CHEMBL4425195, “Isolation of three new annonaceous acetogenins from Graviola fruit (Annona muricata) and their anti-proliferation on human prostate cancer cell PC-3” (Bioorg Med Chem Lett, 2016)
Activity calls are given as the source filed them. The rule behind the calls is not given here.

Tested on: PC-3
Test: Antiproliferative activity against human PC3 cells at 20 ug/ml after 24 hrs by MTT assay
Assay type: functional, cell-based

| Compound | Activity |
| --- | --- |
| CCCCCCCCCCCC/C=C/CC[C@H](O)[C@@H]1CC[C@@H]([C@@H](O)CCC(O)CCCCC[C@H](O)CC2=C[C@H](C)OC2=O)O1 (some centres not stated) | Active |
| CCCCCCCCCC[C@@H](O)[C@@H](O)C[C@H](O)[C@@H]1CC[C@@H](CCCCCCCCCC[C@H](O)CC2=C[C@H](C)OC2=O)O1 | Active |
